Results published in ChEMBL document CHEMBL1145543, “X-ray snapshot of the mechanism of inactivation of human neutrophil elastase by 1,2,5-thiadiazolidin-3-one 1,1-dioxide derivatives” (J Med Chem, 2008).

Columns and labels:
Bos taurus = organism: Bos taurus; assay: Inhibition of bovine trypsin; details: TDE = time-dependent effect
Neutrophil elastase = molecular target: T1, Neutrophil elastase (Homo sapiens, UniProt P08246); assay: Inhibition human neutrophil elastase
T1 sequence (P08246 whole entry): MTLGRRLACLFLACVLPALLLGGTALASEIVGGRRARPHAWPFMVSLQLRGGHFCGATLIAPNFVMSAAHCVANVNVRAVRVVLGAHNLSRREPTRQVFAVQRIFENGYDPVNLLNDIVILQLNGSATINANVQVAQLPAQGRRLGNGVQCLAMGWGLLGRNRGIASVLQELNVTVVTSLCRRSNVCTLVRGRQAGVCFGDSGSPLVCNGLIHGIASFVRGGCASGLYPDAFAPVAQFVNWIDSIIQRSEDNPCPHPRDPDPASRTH

[1] = molecular target: T2, Neutrophil elastase (Homo sapiens) (UniProt P08246); assay: Ratio of Kinact to KI for human neutrophil elastase
T2 sequence (whole entry): T1 sequence (P08246 whole entry)

CCCC1C(=O)N(COC(=O)c2c(Cl)cccc2Cl)S(=O)(=O)N1C (stereo not drawn)
Activity (Bos taurus): tde
Ki (Neutrophil elastase): 5.47 nM
Ratio [1]: 8.9 10^6/M/s
